We go through 21 compounds from PubChem BioAssay AID330 (DTP/NCI, 2004).

The experiment relates to P388 leukemia ip, CD2F1 mice, survival T/C. Briefly: NCI In Vivo Anticancer Drug Screen. Data for tumor model P388 Leukemia (intraperitoneal) in CD2F1 (CDF1) mice. The following applies: endpoint: median survival time, higher = longer survival. Put shortly: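 Mice carrying the transplanted tumor received test compound or vehicle. Survival was recorded in each group, and the value is the treated-group measurement divided by that of the vehicle-treated control group.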

Where [1] appears, read: dose: 100.0 mg/kg/injection, schedule: Q04DX002 (ip), vehicle: saline with Tween-80.
Setting [2] is: dose: 200.0 mg/kg/injection, schedule: Q04DX002 (ip), vehicle: saline with Tween-80.
The mark [3] stands for this setting: dose: 400.0 mg/kg/injection, schedule: Q04DX002 (ip), vehicle: saline with Tween-80.
The mark [4] stands for this setting: dose: 60.0 mg/kg/injection, schedule: Q01DX005 (ip), vehicle: saline with Tween-80.
Setting [5] is: dose: 120.0 mg/kg/injection, schedule: Q01DX005 (ip), vehicle: saline with Tween-80.
[6] abbreviates: dose: 240.0 mg/kg/injection, schedule: Q01DX005 (ip), vehicle: saline with Tween-80.
Setting [7] is: dose: 100.0 mg/kg/injection, schedule: Q01DX009 (ip), vehicle: Klucel (hydroxypropylcellulose) (HPC).
Where [8] appears, read: dose: 200.0 mg/kg/injection, schedule: Q01DX009 (ip), vehicle: Klucel (hydroxypropylcellulose) (HPC).
[9] abbreviates: dose: 50.0 mg/kg/injection, schedule: Q01DX009 (ip), vehicle: saline.
[10] abbreviates: dose: 100.0 mg/kg/injection, schedule: Q01DX009 (ip), vehicle: saline.
[11] abbreviates: dose: 200.0 mg/kg/injection, schedule: Q01DX009 (ip), vehicle: saline.
[12] abbreviates: dose: 12.5 mg/kg/injection, schedule: Q01DX009 (ip), vehicle: saline with Tween-80.
Where [13] appears, read: dose: 25.0 mg/kg/injection, schedule: Q01DX009 (ip), vehicle: saline with Tween-80.
[14] abbreviates: dose: 50.0 mg/kg/injection, schedule: Q01DX009 (ip), vehicle: saline with Tween-80.

Several values for one entry are separate records, joined by “and”; a condition that tells them apart may be missing. Equal values may be shown once. Toxic doses and inconclusive results are not listed.

Take `CNc1nc(SC)nc2c1ncn2C1CCCO1` (stereo not given): the T/C by setting is: under setting [1], 98 % of control; under setting [2], 95 % of control; under setting [3], 95 % of control.

`COc1ccc2ccc(CO)cc2c1OC`: the T/C runs as follows: (dose: 25.0 mg/kg/injection, schedule: Q01DX009 (ip), vehicle: other) 98 % of control; (dose: 50.0 mg/kg/injection, schedule: Q01DX009 (ip), vehicle: other) 92 % of control; (dose: 100.0 mg/kg/injection, schedule: Q01DX009 (ip), vehicle: other) 90 % of control; (dose: 200.0 mg/kg/injection, schedule: Q01DX009 (ip), vehicle: other) 99 % of control; (dose: 400.0 mg/kg/injection, schedule: Q01DX009 (ip), vehicle: other) 90 % of control.

`OC(COc1c2ccccc2nc2ccccc12)COc1c2ccccc2nc2ccccc12`: the T/C under setting [4] was 104 % of control, the T/C under setting [5] is 101 % of control and the T/C under setting [6] was 101 % of control.

As for `COc1c(Br)c2c(c(OC)c1OC)-c1ccc(OC)c(=O)cc1C(NC(C)=O)CC2` (stereo not given), the T/C was 165 % of control (dose: 1.56 mg/kg/injection, schedule: Q01DX009 (ip), vehicle: Klucel (hydroxypropylcellulose) (HPC)); 101 % of control and 96 % of control (dose: 3.12 mg/kg/injection, schedule: Q01DX009 (ip), vehicle: Klucel (hydroxypropylcellulose) (HPC)).

As for `Cc1c2cnccc2c(C)c2c1[nH]c1ccccc12`, the T/C by setting is: (dose: 25.0 mg/kg/injection, schedule: Q04DX002 (ip), vehicle: Klucel (hydroxypropylcellulose) (HPC)) 98 % of control; (dose: 50.0 mg/kg/injection, schedule: Q04DX002 (ip), vehicle: Klucel (hydroxypropylcellulose) (HPC)) 103 % of control; (dose: 100.0 mg/kg/injection, schedule: Q04DX002 (ip), vehicle: Klucel (hydroxypropylcellulose) (HPC)) 105 % of control; (dose: 180.0 mg/kg/injection, schedule: Q04DX002 (ip), vehicle: Klucel (hydroxypropylcellulose) (HPC)) 94 % of control; (dose: 200.0 mg/kg/injection, schedule: Q04DX002 (ip), vehicle: Klucel (hydroxypropylcellulose) (HPC)) 111 % of control; (dose: 360.0 mg/kg/injection, schedule: Q04DX002 (ip), vehicle: Klucel (hydroxypropylcellulose) (HPC)) 108 % of control.

As for `O=C1C=C/C(=C\c2cccc(Cl)c2)O1`, the T/C is, setting by setting: (dose: 100.0 mg/kg/injection, schedule: Q01DX002 (ip), vehicle: Klucel (hydroxypropylcellulose) (HPC)) 103 % of control; (dose: 200.0 mg/kg/injection, schedule: Q01DX002 (ip), vehicle: Klucel (hydroxypropylcellulose) (HPC)) 107 % of control; (dose: 400.0 mg/kg/injection, schedule: Q01DX002 (ip), vehicle: Klucel (hydroxypropylcellulose) (HPC)) 103 % of control.

`O=S(=O)(OCC(COS(=O)(=O)c1ccccc1)(OS(=O)(=O)c1ccccc1)OS(=O)(=O)c1ccccc1)c1ccccc1`: the T/C runs as follows: under setting [7], 105 % of control; under setting [8], 104 % of control; (dose: 400.0 mg/kg/injection, schedule: Q01DX009 (ip), vehicle: Klucel (hydroxypropylcellulose) (HPC)) 100 % of control.

For `C(#Cc1c2ccccc2c(C#Cc2ccccc2)c2c(-c3ccccc3)cccc12)c1ccccc1`, the T/C was 97 % of control (dose: 50.0 mg/kg/injection, schedule: Q01DX005 (ip), vehicle: saline with Tween-80) and 87 % of control (dose: 100.0 mg/kg/injection, schedule: Q01DX005 (ip), vehicle: saline with Tween-80).

For the compound `O=NN1CCCNC1=O`, the T/C reads like this: (dose: 12.5 mg/kg/injection, schedule: Q04DX003 (ip), vehicle: saline) 118 % of control; (dose: 20.0 mg/kg/injection, schedule: Q01DX009 (ip), vehicle: saline with Tween-80) 163 % of control; (dose: 37.5 mg/kg/injection, schedule: Q01DX009 (ip), vehicle: saline with Tween-80) 163 % of control; (dose: 40.0 mg/kg/injection, schedule: Q01DX009 (ip), vehicle: saline with Tween-80) 231 % of control; (dose: 50.0 mg/kg/injection, schedule: Q04DX003 (ip), vehicle: saline) 172 % of control; (dose: 66.0 mg/kg/injection, schedule: Q04DX003 (ip), vehicle: saline) 179 % of control. In addition, the T/C runs as follows: (dose: 75.0 mg/kg/injection, schedule: Q01DX009 (ip), vehicle: saline with Tween-80) 86 % of control; (dose: 100.0 mg/kg/injection, schedule: Q04DX003 (ip), vehicle: saline) 191 % of control and 216 % of control.

`COc1ccc(C2=Nc3ccccc3SC(c3ccc(OC)cc3)C2)cc1` (stereo not given): the T/C was 102 % of control (dose: 50.0 mg/kg/injection, schedule: Q01DX009 (ip), vehicle: Klucel (hydroxypropylcellulose) (HPC)); 96 % of control under setting [7]; 88 % of control under setting [8].

As to `COC(=O)C1CSC2(CCCN(Cc3ccccc3)C2)N1` (stereo not given), the T/C by setting is: under setting [9], 105 % of control; under setting [10], 122 % of control; under setting [11], 109 % of control.

Turning to `O=C1CC2(CCCc3sccc32)C(=O)N1` (stereo not given), the T/C is, setting by setting: under setting [4], 101 % of control; under setting [5], 94 % of control; under setting [6], 92 % of control.

As to `O=C1CC2CC3C1C2n1c(=O)n(-c2ccccc2)c(=O)n13` (stereo not given), the T/C is, setting by setting: (dose: 100.0 mg/kg/injection, schedule: Q01DX001 (ip), vehicle: Klucel (hydroxypropylcellulose) (HPC)) 107 % of control; (dose: 200.0 mg/kg/injection, schedule: Q01DX001 (ip), vehicle: Klucel (hydroxypropylcellulose) (HPC)) 101 % of control; (dose: 400.0 mg/kg/injection, schedule: Q01DX001 (ip), vehicle: Klucel (hydroxypropylcellulose) (HPC)) 96 % of control.

With `O=C1NS(=O)(=O)Oc2c1ccc1ccccc21`, the T/C is, setting by setting: under setting [12], 108 % of control; under setting [13], 99 % of control; under setting [14], 96 % of control; (dose: 100.0 mg/kg/injection, schedule: Q01DX009 (ip), vehicle: saline with Tween-80) 96 % of control; (dose: 200.0 mg/kg/injection, schedule: Q01DX009 (ip), vehicle: saline with Tween-80) 110 % of control.

Take `COc1cc(N=Nc2ccc([N+](=O)[O-])cc2)c([OH+]C)cc1[N+]#N.COc1cc(N=Nc2ccc([N+](=O)[O-])cc2)c([OH+]C)cc1[N+]#N.[Cl][Zn][Cl]`: the T/C was 110 % of control and 112 % of control and 117 % of control under setting [9]; 111 % of control and 117 % of control and 119 % of control under setting [10]; 116 % of control and 119 % of control under setting [11]; 107 % of control (dose: 400.0 mg/kg/injection, schedule: Q01DX009 (ip), vehicle: saline).

Consider `CCC(C)N(CCNc1cc(OC)cc2cccnc12)CC(C)C` (stereo not given), for which the T/C (dose: 12.5 mg/kg/injection, schedule: Q01DX005 (ip), vehicle: saline) was 104 % of control; the T/C (dose: 25.0 mg/kg/injection, schedule: Q01DX005 (ip), vehicle: saline) is 104 % of control; the T/C (dose: 50.0 mg/kg/injection, schedule: Q01DX005 (ip), vehicle: saline) is 101 % of control and 95 % of control.

For `NCCCCC1(CCCCN)OCCO1`, the T/C reads like this: (dose: 12.5 mg/kg/injection, schedule: Q01DX009 (ip), vehicle: saline) 95 % of control; (dose: 25.0 mg/kg/injection, schedule: Q01DX009 (ip), vehicle: saline) 95 % of control; under setting [9], 100 % of control.

For `Nc1cccc(-n2ccnc2)c1`, the T/C under setting [1] was 100 % of control, the T/C under setting [2] is 93 % of control and the T/C under setting [3] is 90 % of control.

In the case of `Nc1ccc(/C=C/c2cccc3cccnc23)cc1`, the T/C reads like this: under setting [12], 96 % of control; under setting [13], 96 % of control; under setting [14], 93 % of control.

Turning to `COc1cccc2c1C(=O)c1c(O)c3c(c(O)c1C2=O)CC(=O)CC3OC1CC(NC(=O)C(F)(F)F)C(O)C(C)O1` (stereo not given), the T/C by setting is: (dose: 1.56 mg/kg/injection, schedule: Q01DX009 (ip), vehicle: other) 104 % of control; (dose: 3.13 mg/kg/injection, schedule: Q01DX009 (ip), vehicle: other) 102 % of control; (dose: 6.25 mg/kg/injection, schedule: Q01DX009 (ip), vehicle: other) 98 % of control; (dose: 12.5 mg/kg/injection, schedule: Q01DX009 (ip), vehicle: other) 90 % of control.

Turning to `COC(=O)C(=O)C(C)C(=O)C(C)c1nc(NC(=O)Nc2ccc(Cl)cc2)n[nH]1` (stereo not given), the T/C runs as follows: under setting [4], 101 % of control; under setting [5], 101 % of control; under setting [6], 100 % of control.
